How the values were obtained:
[1] = The drug is tested on Bifidobacterium breve strain: DSM20213 for biotransformation. The drug concentrations were measured before and after a 12-h incubation by liquid-chromatography-coupled mass spectrometry (LC–MS); settings: 2 µM
[2] = The drug is tested on Bifidobacterium longum subsp. Infantis strain: CCUG52486 for biotransformation. The drug concentrations were measured before and after a 12-h incubation by liquid-chromatography-coupled mass spectrometry (LC–MS); settings: 2 µM
[3] = The drug is tested on Collinsella aerofaciens strain: ATCC25986 for biotransformation. The drug concentrations were measured before and after a 12-h incubation by liquid-chromatography-coupled mass spectrometry (LC–MS); settings: 2 µM
[4] = The drug is tested on Bacteroides fragilis strain: HMW615 for biotransformation. The drug concentrations were measured before and after a 12-h incubation by liquid-chromatography-coupled mass spectrometry (LC–MS); settings: 2 µM
[5] = The drug is tested on Bacteroides ovatus strain: ATCC8483 for biotransformation. The drug concentrations were measured before and after a 12-h incubation by liquid-chromatography-coupled mass spectrometry (LC–MS); settings: 2 µM
[6] = The drug is tested on Bacteroides sp. WH2 strain: WH2 for biotransformation. The drug concentrations were measured before and after a 12-h incubation by liquid-chromatography-coupled mass spectrometry (LC–MS); settings: bacteroides sp. wh2, 12 h, 2 µM
[7] = The drug is tested on Bacteroides xylanisolvens strain: DSM18836 for biotransformation. The drug concentrations were measured before and after a 12-h incubation by liquid-chromatography-coupled mass spectrometry (LC–MS); settings: 2 µM
[8] = The drug is tested on Clostridium ramosum strain: DSM1402 for biotransformation. The drug concentrations were measured before and after a 12-h incubation by liquid-chromatography-coupled mass spectrometry (LC–MS); settings: thomasclavelia ramosa, 2 µM
[9] = The drug is tested on Enterococcus faecalis strain: V583 for biotransformation. The drug concentrations were measured before and after a 12-h incubation by liquid-chromatography-coupled mass spectrometry (LC–MS); settings: 2 µM
[10] = The drug is tested on Eubacterium hallii strain: DSM3353 for biotransformation. The drug concentrations were measured before and after a 12-h incubation by liquid-chromatography-coupled mass spectrometry (LC–MS); settings: anaerobutyricum hallii, 2 µM
[11] = The drug is tested on Eubacterium rectale strain: ATCC33656 for biotransformation. The drug concentrations were measured before and after a 12-h incubation by liquid-chromatography-coupled mass spectrometry (LC–MS); settings: agathobacter rectalis, 2 µM
[12] = The drug is tested on Eubacterium ventriosum strain: ATCC27560 for biotransformation. The drug concentrations were measured before and after a 12-h incubation by liquid-chromatography-coupled mass spectrometry (LC–MS); assay type: ADME; parameters: dose 2 uM, timepoint 0 vs 12 hours; settings: 2 µM
[13] = The drug is tested on Ruminococcus torques strain: ATCC27756 for biotransformation. The drug concentrations were measured before and after a 12-h incubation by liquid-chromatography-coupled mass spectrometry (LC–MS); assay type: ADME; parameters: dose 2 uM, timepoint 0 vs 12 hours; settings: 2 µM
[14] = The drug is tested on Escherichia coli strain: BW25113 for biotransformation. The drug concentrations were measured before and after a 12-h incubation by liquid-chromatography-coupled mass spectrometry (LC–MS); settings: 2 µM
[15] = The drug is tested on Providencia stuartii strain: ATCC25827 for biotransformation. The drug concentrations were measured before and after a 12-h incubation by liquid-chromatography-coupled mass spectrometry (LC–MS); settings: 2 µM
[16] = bifidobacterium adolescentis, 12 h, 2 µM
Description: The drug is tested on Bifidobacterium adolescentis strain: ATCC 15703 for biotransformation. The drug concentrations were measured before and after a 12-h incubation by liquid-chromatography-coupled mass spectrometry (LC–MS)

[17] = parabacteroides johnsonii, 12 h, 2 µM
Description: The drug is tested on Parabacteroides johnsonii strain: DSM18315 for biotransformation. The drug concentrations were measured before and after a 12-h incubation by liquid-chromatography-coupled mass spectrometry (LC–MS)

[18] = enterocloster bolteae, 12 h, 2 µM
Description: The drug is tested on Clostridium bolteae strain: ATCCBAA-613 for biotransformation. The drug concentrations were measured before and after a 12-h incubation by liquid-chromatography-coupled mass spectrometry (LC–MS)

[19] = victivallis vadensis, 12 h, 2 µM
Description: The drug is tested on Victivallis vadensis strain: ATCC BAA-548 for biotransformation. The drug concentrations were measured before and after a 12-h incubation by liquid-chromatography-coupled mass spectrometry (LC–MS)

[20] = The drug is tested on Bacteroides coprophilus strain: DSM18228 for biotransformation. The drug concentrations were measured before and after a 12-h incubation by liquid-chromatography-coupled mass spectrometry (LC–MS); settings: 2 µM

| Structure (SMILES) | Bacterial Biotransformation [1] | Bacterial Biotransformation [2] | Bacterial Biotransformation [3] | Bacterial Biotransformation [4] | Bacterial Biotransformation [5] | Bacterial Biotransformation [6] | Bacterial Biotransformation [7] | Bacterial Biotransformation [8] | Bacterial Biotransformation [9] | Bacterial Biotransformation [10] | Bacterial Biotransformation [11] | Bacterial Biotransformation [12] | Bacterial Biotransformation [13] | Bacterial Biotransformation [14] | Bacterial Biotransformation [15] | Bacterial Biotransformation [16] | Bacterial Biotransformation [17] | Bacterial Biotransformation [18] | Bacterial Biotransformation [19] | Bacterial Biotransformation [20] |
| --- | --- | --- | --- | --- | --- | --- | --- | --- | --- | --- | --- | --- | --- | --- | --- | --- | --- | --- | --- | --- |
| CN1CCc2cccc3c2[C@H]1Cc1ccc(O)c(O)c1-3 [APOMORPHINE] | Compound NOT metabolized | Compound NOT metabolized | Compound NOT metabolized | Compound NOT metabolized | Compound NOT metabolized | Compound NOT metabolized | Compound NOT metabolized | Compound NOT metabolized | Compound NOT metabolized | Compound NOT metabolized | Compound NOT metabolized | Compound NOT metabolized | Compound NOT metabolized | Compound NOT metabolized | Compound NOT metabolized | Compound NOT metabolized | Compound NOT metabolized | Compound NOT metabolized | Compound NOT metabolized |  |
| CN1CCN(C2=Nc3cc(Cl)ccc3Nc3ccccc32)CC1 [CLOZAPINE] | Compound NOT metabolized | Compound NOT metabolized | Compound NOT metabolized | Compound NOT metabolized | Compound NOT metabolized | Compound NOT metabolized | Compound NOT metabolized | Compound NOT metabolized |  | Compound NOT metabolized | Compound NOT metabolized | Compound NOT metabolized | Compound NOT metabolized | Compound NOT metabolized | Compound NOT metabolized | Compound NOT metabolized | Compound NOT metabolized | Compound NOT metabolized | Compound NOT metabolized |  |
| CC#C[C@]1(O)CC[C@H]2[C@@H]3CCC4=CC(=O)CCC4=C3[C@@H](c3ccc(N(C)C)cc3)C[C@@]21C [MIFEPRISTONE] | Compound metabolized | Compound NOT metabolized | Compound NOT metabolized | Compound NOT metabolized |  | Compound NOT metabolized |  | Compound NOT metabolized | Compound metabolized | Compound NOT metabolized | Compound NOT metabolized | Compound NOT metabolized | Compound NOT metabolized | Compound NOT metabolized | Compound NOT metabolized | Compound NOT metabolized | Compound NOT metabolized | Compound NOT metabolized | Compound NOT metabolized | Compound NOT metabolized |
| CCOC(=O)C1=C(C)NC(C)=C(C(=O)OC)C1c1cccc([N+](=O)[O-])c1 (stereo unspecified) [NITRENDIPINE] | Compound metabolized | Compound metabolized | Compound metabolized | Compound metabolized |  | Compound metabolized | Compound metabolized | Compound metabolized | Compound metabolized | Compound metabolized | Compound metabolized | Compound metabolized | Compound metabolized | Compound metabolized | Compound NOT metabolized | Compound metabolized | Compound metabolized | Compound metabolized | Compound metabolized | Compound NOT metabolized |
| CC(=O)SCC(Cc1ccccc1)C(=O)NCC(=O)OCc1ccccc1 (stereo unspecified) [RACECADOTRIL] | Compound metabolized | Compound metabolized | Compound NOT metabolized | Compound metabolized | Compound metabolized | Compound metabolized | Compound metabolized | Compound NOT metabolized |  | Compound NOT metabolized | Compound NOT metabolized | Compound metabolized |  | Compound NOT metabolized | Compound NOT metabolized | Compound metabolized | Compound metabolized | Compound NOT metabolized | Compound metabolized | Compound metabolized |
| O=C(O)c1cc(/N=N/c2ccc(S(=O)(=O)Nc3ccccn3)cc2)ccc1O [SULFASALAZINE] | Compound metabolized | Compound metabolized | Compound metabolized | Compound metabolized | Compound metabolized | Compound metabolized | Compound metabolized | Compound metabolized | Compound metabolized | Compound metabolized | Compound metabolized | Compound metabolized | Compound metabolized | Compound metabolized |  | Compound metabolized | Compound metabolized | Compound metabolized | Compound metabolized | Compound NOT metabolized |

— ChEMBL document CHEMBL5303573, “Mapping human microbiome drug metabolism by gut bacteria and their genes” (Nature, 2019)
